Laboratory results published in ChEMBL document CHEMBL3352173, “Optimization of pyrrolamide topoisomerase II inhibitors toward identification of an antibacterial clinical candidate (AZD5099)” (J Med Chem, 2014).
Values after ≈ are worked out from the molar mass of the structure shown.

How the values were obtained:
[1] = tested on: Staphylococcus aureus; assay: Antibacterial activity against methicillin-sensitive Staphylococcus aureus ARC516 infected in neutropenic CD1 mouse thigh model assessed as decrease in bacterial viable counts at 30 mg/kg, ip after 24 hrs; assay type: functional; details: route intraperitoneal
[2] = tested on: Staphylococcus aureus; assay: Antibacterial activity against methicillin-sensitive Staphylococcus aureus ARC516 infected in neutropenic CD1 mouse thigh model assessed as decrease in bacterial viable counts at 30 mg/kg, ip q24; assay type: functional; details: route intraperitoneal
[3] = tested on: Mus musculus; assay: fAUC in methicillin-sensitive Staphylococcus aureus ARC516 infected in neutropenic CD1 mouse thigh model at 30 mg/kg, ip q24; assay type: ADME, organism-based; parameters: dose 30 mg/kg, route intraperitoneal; details: in vivo
[4] = tested on: Staphylococcus aureus; assay: Antibacterial activity against methicillin-sensitive Staphylococcus aureus ARC516 infected in ip dosed neutropenic CD1 mouse thigh model assessed as decrease in bacterial viable counts treated for q24; assay type: functional; details: ARC516, Thigh muscle
[5] = tested on: Staphylococcus aureus; assay: Antimicrobial activity against methicillin-resistant Staphylococcus aureus by broth microdilution/CLSI method; assay type: functional
[6] = tested on: Enterococcus faecalis; assay: Antimicrobial activity against Enterococcus faecalis by broth microdilution/CLSI method; assay type: functional
[7] = tested on: Enterococcus faecalis; assay: Antimicrobial activity against vancomycin-resistant Enterococcus faecalis by broth microdilution/CLSI method; assay type: functional
[8] = tested on: Haemophilus influenzae; assay: Antimicrobial activity against amoxicillin-resistant Haemophilus influenzae by broth microdilution/CLSI method; assay type: functional
[9] = tested on: Staphylococcus aureus; assay: Antimicrobial activity against 2 times drug resistance selected Staphylococcus aureus ARC516-1F by broth microdilution/CLSI method; assay type: functional
[10] = tested on: Staphylococcus aureus; assay: Antimicrobial activity against 2 times drug resistance selected Staphylococcus aureus ARC516-2F by broth microdilution/CLSI method; assay type: functional
[11] = tested on: Staphylococcus aureus; assay: Antimicrobial activity against Staphylococcus aureus ARC1692 by broth microdilution/CLSI method; assay type: functional
[12] = tested on: Staphylococcus aureus; assay: Antimicrobial activity against 2 times drug resistance selected Staphylococcus aureus ARC1692-1F by broth microdilution/CLSI method; assay type: functional
[13] = tested on: Staphylococcus aureus; assay: Antimicrobial activity against 2 times drug resistance selected Staphylococcus aureus ARC1692-2F by broth microdilution/CLSI method; assay type: functional
[14] = tested on: Staphylococcus aureus; assay: Antimicrobial activity against 2 times drug resistance selected Staphylococcus aureus ARC2381-3F by broth microdilution/CLSI method; assay type: functional
[15] = tested on: Staphylococcus aureus; assay: Antimicrobial activity against Staphylococcus aureus ARC2398 by broth microdilution/CLSI method; assay type: functional
[16] = tested on: Staphylococcus aureus; assay: Antimicrobial activity against 2 times drug resistance selected Staphylococcus aureus ARC2398-1F by broth microdilution/CLSI method; assay type: functional
[17] = tested on: Staphylococcus aureus; assay: Antimicrobial activity against 2 times drug resistance selected Staphylococcus aureus ARC2398-2F by broth microdilution/CLSI method; assay type: functional
[18] = tested on: Staphylococcus aureus; assay: Ratio of MIC for 2 times drug resistance selected Staphylococcus aureus ARC1692-1F to MIC for Staphylococcus aureus ARC1692; assay type: functional
[19] = Selectivity ratio for human topoisomerase 2 alpha to bacterial type 2 topoisomerase
[20] = biological target: Voltage-gated inwardly rectifying potassium channel KCNH2 (Homo sapiens, UniProt Q12809); assay: Inhibition of human ERG at 100 uM
[21] = biological target: T1, Cytochrome P450 1A2 (Homo sapiens, UniProt P05177); assay: Inhibition of human CYP1A2 at 50 uM; assay type: ADME
T1 sequence (P05177 whole entry): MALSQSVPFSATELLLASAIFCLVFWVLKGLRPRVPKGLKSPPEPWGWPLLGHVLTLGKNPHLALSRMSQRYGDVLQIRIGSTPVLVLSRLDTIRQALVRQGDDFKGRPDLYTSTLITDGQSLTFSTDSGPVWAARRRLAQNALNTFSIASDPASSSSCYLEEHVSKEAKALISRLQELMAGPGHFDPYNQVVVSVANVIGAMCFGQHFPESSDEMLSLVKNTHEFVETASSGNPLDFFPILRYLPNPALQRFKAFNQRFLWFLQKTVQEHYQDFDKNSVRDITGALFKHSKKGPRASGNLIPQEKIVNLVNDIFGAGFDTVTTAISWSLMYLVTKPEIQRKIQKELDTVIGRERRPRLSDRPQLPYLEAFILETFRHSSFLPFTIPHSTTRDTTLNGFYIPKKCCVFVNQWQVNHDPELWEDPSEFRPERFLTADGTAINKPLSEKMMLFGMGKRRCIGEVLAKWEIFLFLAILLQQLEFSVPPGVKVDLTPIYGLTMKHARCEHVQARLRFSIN

[22] = biological target: T2, Cytochrome P450 2C8 (Homo sapiens, UniProt P10632); assay: Inhibition of human CYP2C8 at 50 uM; assay type: ADME
T2 sequence (P10632 whole entry): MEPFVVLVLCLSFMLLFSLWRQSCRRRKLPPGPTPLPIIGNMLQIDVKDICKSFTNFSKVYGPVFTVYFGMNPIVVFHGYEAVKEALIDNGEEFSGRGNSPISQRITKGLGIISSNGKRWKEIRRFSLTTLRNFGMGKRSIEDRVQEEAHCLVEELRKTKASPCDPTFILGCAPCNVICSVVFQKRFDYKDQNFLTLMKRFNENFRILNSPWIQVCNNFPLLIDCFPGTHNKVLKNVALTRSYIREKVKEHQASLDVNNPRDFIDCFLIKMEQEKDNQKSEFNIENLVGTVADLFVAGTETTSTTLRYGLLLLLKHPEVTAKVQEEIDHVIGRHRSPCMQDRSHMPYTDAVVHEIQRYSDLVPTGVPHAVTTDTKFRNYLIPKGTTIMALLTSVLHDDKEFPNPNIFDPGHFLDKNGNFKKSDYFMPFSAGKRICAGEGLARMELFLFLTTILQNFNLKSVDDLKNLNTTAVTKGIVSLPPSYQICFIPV

[23] = biological target: Cytochrome P450 2D6 (Homo sapiens, UniProt P10635); assay: Inhibition of human CYP2D6 at 50 uM; assay type: ADME
[24] = biological target: ATP-binding cassette sub-family C member 2 (Rattus norvegicus, UniProt Q63120); assay: Inhibition of ATPase activity of rat Mrp2 assessed as inorganic phosphate
[25] = tested on: Haemophilus influenzae; assay: Antimicrobial activity against Haemophilus influenzae by broth microdilution/CLSI method; assay type: functional; details: Haemophilus influenzae; read-out: MIC
[26] = Clearance in Wistar rat at 10 mg/kg, iv; assay type: ADME, organism-based; parameters: dose 10 mg/kg, route intravenous; details: in vivo
[27] = tested on: Streptococcus pyogenes; assay: Antimicrobial activity against Streptococcus pyogenes by broth microdilution/CLSI method; assay type: functional
[28] = tested on: Staphylococcus aureus; assay: Antimicrobial activity against methicillin-sensitive Staphylococcus aureus by broth microdilution/CLSI method; assay type: functional; details: Staphylococcus aureus; read-out: MIC
[29] = tested on: Moraxella catarrhalis; assay: Antimicrobial activity against Moraxella catarrhalis by broth microdilution/CLSI method; assay type: functional; details: Moraxella catarrhalis; read-out: MIC
[30] = tested on: Escherichia coli; assay: Antimicrobial activity against wild-type Escherichia coli Eco523 by broth microdilution/CLSI method; assay type: functional; details: Escherichia coli, Eco523; read-out: MIC
[31] = Dissociation constant, pKa of the compound; assay type: physicochemical
[32] = Percentage unbound in mouse plasma; assay type: ADME, cell-free
[33] = Bioavailability in CD1 mouse at 10 mg/kg, […]; assay type: ADME, organism-based; details: in vivo
[34] = Percentage unbound in rat plasma; assay type: ADME, cell-free
[35] = Percentage unbound in dog plasma; assay type: ADME, cell-free, Canis lupus familiaris
[36] = Bioavailability in dog at 10 mg/kg, iv; assay type: ADME, organism-based, Canis lupus familiaris; details: plasma
[37] = Clearance in dog at 10 mg/kg, iv; assay type: ADME, organism-based, Canis lupus familiaris; parameters: dose 10 mg/kg, route intravenous; details: plasma
[38] = Clearance in TR-negative Wistar rat at 10 mg/kg, iv; assay type: ADME, organism-based; parameters: dose 10 mg/kg, route intravenous; details: in vivo

Cytochrome P450 2D6, sequence (P10635 whole entry): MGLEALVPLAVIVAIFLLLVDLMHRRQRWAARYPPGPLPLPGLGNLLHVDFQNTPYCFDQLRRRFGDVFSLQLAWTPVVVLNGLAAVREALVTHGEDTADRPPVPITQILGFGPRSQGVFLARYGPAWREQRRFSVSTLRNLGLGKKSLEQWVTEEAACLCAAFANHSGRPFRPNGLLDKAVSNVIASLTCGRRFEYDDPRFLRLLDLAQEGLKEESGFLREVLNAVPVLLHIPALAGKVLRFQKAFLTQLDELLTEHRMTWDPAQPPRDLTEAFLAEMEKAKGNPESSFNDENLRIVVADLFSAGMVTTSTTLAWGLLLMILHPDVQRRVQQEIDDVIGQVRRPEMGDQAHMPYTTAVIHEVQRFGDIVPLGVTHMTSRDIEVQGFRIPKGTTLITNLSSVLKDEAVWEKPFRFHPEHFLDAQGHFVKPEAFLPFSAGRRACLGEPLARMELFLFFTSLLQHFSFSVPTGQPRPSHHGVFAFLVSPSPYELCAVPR
Voltage-gated inwardly rectifying potassium channel KCNH2, sequence (Q12809 whole entry): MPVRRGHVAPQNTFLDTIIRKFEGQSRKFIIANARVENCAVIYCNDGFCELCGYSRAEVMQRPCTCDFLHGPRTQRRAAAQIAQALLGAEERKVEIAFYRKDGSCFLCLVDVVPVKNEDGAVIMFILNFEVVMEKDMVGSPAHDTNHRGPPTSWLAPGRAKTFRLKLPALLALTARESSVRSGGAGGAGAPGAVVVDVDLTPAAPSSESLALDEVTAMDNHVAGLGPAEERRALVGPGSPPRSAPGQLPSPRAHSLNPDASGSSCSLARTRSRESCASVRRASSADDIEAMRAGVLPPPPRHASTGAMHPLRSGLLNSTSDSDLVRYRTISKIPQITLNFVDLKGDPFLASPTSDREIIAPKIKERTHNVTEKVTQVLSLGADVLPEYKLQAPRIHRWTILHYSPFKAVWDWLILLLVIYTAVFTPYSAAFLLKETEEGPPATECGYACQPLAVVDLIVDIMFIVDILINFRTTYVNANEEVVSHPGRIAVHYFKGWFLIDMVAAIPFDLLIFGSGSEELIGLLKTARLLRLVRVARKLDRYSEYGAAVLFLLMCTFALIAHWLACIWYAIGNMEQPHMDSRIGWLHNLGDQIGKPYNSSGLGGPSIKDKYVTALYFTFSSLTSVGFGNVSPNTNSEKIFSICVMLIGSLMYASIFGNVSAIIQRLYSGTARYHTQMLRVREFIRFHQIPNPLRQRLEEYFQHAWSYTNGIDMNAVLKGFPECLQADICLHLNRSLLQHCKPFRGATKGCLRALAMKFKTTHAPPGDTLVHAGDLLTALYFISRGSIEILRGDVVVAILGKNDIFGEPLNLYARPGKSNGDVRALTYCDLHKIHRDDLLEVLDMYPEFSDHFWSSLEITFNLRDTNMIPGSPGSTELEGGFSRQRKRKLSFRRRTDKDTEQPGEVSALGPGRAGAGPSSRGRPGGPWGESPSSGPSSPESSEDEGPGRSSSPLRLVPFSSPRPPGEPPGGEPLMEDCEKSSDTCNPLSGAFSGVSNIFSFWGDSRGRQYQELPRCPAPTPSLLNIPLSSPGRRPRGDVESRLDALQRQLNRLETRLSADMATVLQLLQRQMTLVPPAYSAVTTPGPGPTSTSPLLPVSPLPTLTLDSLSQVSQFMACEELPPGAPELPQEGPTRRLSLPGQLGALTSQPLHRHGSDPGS
ATP-binding cassette sub-family C member 2, sequence (Q63120 whole entry): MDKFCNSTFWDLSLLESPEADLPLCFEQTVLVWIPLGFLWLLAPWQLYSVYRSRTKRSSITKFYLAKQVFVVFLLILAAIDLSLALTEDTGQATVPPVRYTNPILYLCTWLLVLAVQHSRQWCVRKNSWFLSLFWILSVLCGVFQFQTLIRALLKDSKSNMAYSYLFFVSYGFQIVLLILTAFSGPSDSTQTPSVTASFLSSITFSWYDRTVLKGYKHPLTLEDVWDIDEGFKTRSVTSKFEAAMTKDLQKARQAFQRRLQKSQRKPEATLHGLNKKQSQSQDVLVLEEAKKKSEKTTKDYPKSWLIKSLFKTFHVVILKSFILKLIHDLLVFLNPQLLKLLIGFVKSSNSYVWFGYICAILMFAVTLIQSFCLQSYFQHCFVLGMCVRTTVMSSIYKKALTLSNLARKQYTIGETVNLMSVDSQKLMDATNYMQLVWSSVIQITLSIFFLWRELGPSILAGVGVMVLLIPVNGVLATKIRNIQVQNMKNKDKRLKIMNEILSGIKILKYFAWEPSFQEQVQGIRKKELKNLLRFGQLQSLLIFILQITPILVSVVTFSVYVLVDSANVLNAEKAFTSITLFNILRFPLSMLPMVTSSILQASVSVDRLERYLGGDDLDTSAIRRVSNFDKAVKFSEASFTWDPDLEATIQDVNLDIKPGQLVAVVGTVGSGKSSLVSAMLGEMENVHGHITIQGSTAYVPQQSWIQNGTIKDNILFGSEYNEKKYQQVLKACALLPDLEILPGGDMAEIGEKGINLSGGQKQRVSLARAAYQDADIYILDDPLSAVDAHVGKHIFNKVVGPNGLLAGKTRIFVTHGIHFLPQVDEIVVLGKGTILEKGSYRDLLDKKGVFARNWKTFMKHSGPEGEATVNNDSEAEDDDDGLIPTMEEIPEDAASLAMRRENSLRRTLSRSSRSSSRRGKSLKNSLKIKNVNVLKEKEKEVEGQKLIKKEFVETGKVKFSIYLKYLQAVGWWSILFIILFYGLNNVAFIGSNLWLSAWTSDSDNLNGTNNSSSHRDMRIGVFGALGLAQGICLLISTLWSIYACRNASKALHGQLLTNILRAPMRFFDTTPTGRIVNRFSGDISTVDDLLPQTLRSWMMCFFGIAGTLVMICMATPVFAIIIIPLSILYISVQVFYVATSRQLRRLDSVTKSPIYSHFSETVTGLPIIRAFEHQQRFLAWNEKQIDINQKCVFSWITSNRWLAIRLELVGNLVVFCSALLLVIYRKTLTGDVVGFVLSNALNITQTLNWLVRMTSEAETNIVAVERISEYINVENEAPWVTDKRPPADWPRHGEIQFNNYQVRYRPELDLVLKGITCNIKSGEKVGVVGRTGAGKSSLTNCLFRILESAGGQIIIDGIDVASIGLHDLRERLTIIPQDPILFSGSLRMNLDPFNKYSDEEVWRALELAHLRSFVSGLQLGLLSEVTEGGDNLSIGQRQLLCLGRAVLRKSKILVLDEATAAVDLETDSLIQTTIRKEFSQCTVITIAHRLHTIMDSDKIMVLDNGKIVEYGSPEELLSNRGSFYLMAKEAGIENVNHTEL

COC[C@H](C)NC(=O)c1nc(N2CC[C@@H](NC(=O)c3[nH]c(C)c(Cl)c3Cl)[C@@H](OC)C2)sc1C(=O)O [AZD-5099]
fold change (FC) [1]: 2 | deltalog10CFU [2]: 1.51 | fAUC [3]: 5450 ng·h/mL | MIC [4]: 0.03 µg/mL (≈ 0.0547 µM) | MIC90 [5]: 0.06 µg/mL (≈ 0.109 µM) | MIC90 [6]: 0.015 µg/mL (≈ 0.0273 µM) | MIC90 [7]: 0.015 µg/mL (≈ 0.0273 µM) | MIC90 [8]: 0.25 µg/mL (≈ 0.456 µM) | MIC [9]: 0.25 µg/mL (≈ 0.456 µM) | MIC [10]: 0.25 µg/mL (≈ 0.456 µM) | MIC [11]: 0.06 µg/mL (≈ 0.109 µM) | MIC [12]: 0.5 µg/mL (≈ 0.912 µM) | MIC [13]: 0.5 µg/mL (≈ 0.912 µM) | MIC [14]: 0.13 µg/mL (≈ 0.237 µM) | MIC [15]: 0.03 µg/mL (≈ 0.0547 µM) | MIC [16]: 0.5 µg/mL (≈ 0.912 µM) | MIC [17]: 0.5 µg/mL (≈ 0.912 µM) | Ratio [18]: 8 | Selectivity ratio [19]: 10000 | inhibition (INH) [20]: Not Active | inhibition (INH) [21]: Not Active | inhibition (INH) [22]: Not Active | inhibition (INH) [23]: Not Active | IC50 [24]: 200 µM | MIC [25]: 0.13 µg/mL (≈ 0.237 µM) | clearance [26]: 4 mL/min/kg | MIC [27]: 0.014 µg/mL (≈ 0.0255 µM) | MIC [28]: 0.036 µg/mL (≈ 0.0656 µM) | MIC [29]: < 0.008 µg/mL | MIC [30]: 24 µg/mL (≈ 43.8 µM) | pKa [31]: 4.2 | fraction unbound [32]: 0.047 | bioavailability [33]: 100% | fraction unbound [34]: 0.034 | fraction unbound [35]: 0.062 | bioavailability [36]: 96% | clearance [37]: 0.64 mL/min/kg | clearance [38]: 2.1 mL/min/kg
